Assay results published in PubChem BioAssay (NCI).
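Interpolation was linear, between the two tested concentrations surrounding the appropriate level; five concentrations were tested over 48 hours in 96-well plates. GI50: concentration for 50% inhibition of growth. TGI: total growth inhibition.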

How the values were obtained:
Test in all cases: NCI tumour cell line growth inhibition, 48 h
[1] = test system: SW-620 colon
[2] = test system: HS 578T breast
[3] = test system: KM12 colon
[4] = test system: IGROV1 ovarian
[5] = test system: LOX IMVI melanoma
[6] = test system: SK-OV-3 ovarian
[7] = test system: HOP-62 NSCLC
[8] = test system: NCI-H226 lung
[9] = test system: SF-295 CNS
[10] = test system: HCT-15 colon
[11] = test system: M14 melanoma
[12] = test system: EKVX NSCLC
[13] = test system: RXF 393 renal
[14] = test system: NCI/ADR-RES ovarian
[15] = test system: SK-MEL-2 melanoma
[16] = test system: NCI-H460 lung
[17] = test system: HCT-116 colon
[18] = test system: SN12C renal
[19] = test system: OVCAR-5 ovarian
[20] = test system: DU-145 prostate
[21] = test system: TK-10 renal
[22] = test system: COLO 205 colon
[23] = test system: NCI-H23 lung
[24] = test system: A498 renal
[25] = test system: K-562 leukemia
[26] = test system: HL-60(TB) leukemia
[27] = test system: SK-MEL-5 melanoma
[28] = test system: MOLT-4 leukemia

## C=C1C(=O)O[C@H]2[C@H]1CC/C(COC(=O)c1ccccc1)=C\CC[C@@]1(C)O[C@@H]21
[1]
  GI50: 407 nM
  TGI: 1750 nM
[2]
  GI50: 2560 nM
  TGI: 14800 nM
[3]
  GI50: 2570 nM
  TGI: 8420 nM
[4]
  GI50: 787 nM
  TGI: 2660 nM
[5]
  GI50: 1320 nM
  TGI: 2740 nM
[6]
  GI50: 11800 nM
  TGI: 24000 nM
[7]
  GI50: 2960 nM
  TGI: 14100 nM
[8]
  GI50: 1620 nM
  TGI: 3740 nM
[9]
  GI50: 3830 nM
  TGI: 16000 nM
[10]
  GI50: 800 nM
  TGI: 2300 nM
[11]
  GI50: 1320 nM
  TGI: 3270 nM
[12]
  GI50: 1850 nM
  TGI: 4460 nM
[13]
  GI50: 1140 nM
  TGI: 2580 nM
[14]
  GI50: 2670 nM
  TGI: 9050 nM
[15]
  GI50: 1940 nM
  TGI: 4020 nM
[16]
  GI50: 2220 nM
  TGI: 6160 nM
[17]
  GI50: 469 nM
  TGI: 1820 nM
[18]
  GI50: 1390 nM
  TGI: 3260 nM
[19]
  GI50: 2000 nM
  TGI: 5360 nM
[20]
  GI50: 1060 nM
  TGI: 2290 nM
[21]
  GI50: 2030 nM
  TGI: 3980 nM
[22]
  GI50: 1370 nM
  TGI: 3140 nM
[23]
  GI50: 1820 nM
  TGI: 4160 nM
[24]
  GI50: 16800 nM
  TGI: 30800 nM
[25]
  GI50: 451 nM
  TGI: 13000 nM
[26]
  GI50: 981 nM
  TGI: 3950 nM
[27]
  GI50: 1630 nM
  TGI: 3030 nM
[28]
  GI50: 2140 nM
  TGI: 7570 nM
